Values quoted from earlier work as cited in patent publication US6703036B1, “Stomach-action molluscicides” (priority 1997, dated 2004).

Columns and labels:
[1] = system: golden apple snail, Pomacea canaliculata; settings: used on its own at 100 ppm, aqueous solution on the water surface
[2] = system: rat; settings: oral administration

Row | Molecule | molluscicidal activity [1] | LD50 [2] [g/kg]
1 | CCCCCCCCCCCCOS(=O)(=O)[O-].[Na+] [Sodium dodecyl sulphate] | effective molluscicide | –
2 | Sorbitan monolaurate | – | 33.6
3 | Sorbitan monostearate | – | 31
